{"source": "PubChem BioAssay (NCI)", "experiment_in_all_cases": "inhibition of tumour cell growth, NCI panel, 384-well format", "key": {"NCI-H522 lung": {"system": "NCI-H522 lung"}, "SF-539 CNS": {"system": "SF-539 CNS"}, "SK-OV-3 ovarian": {"system": "SK-OV-3 ovarian"}, "A549 NSCLC": {"system": "A549 NSCLC"}, "SNB-75 CNS": {"system": "SNB-75 CNS"}, "NCI-H322M lung": {"system": "NCI-H322M lung"}, "CCRF-CEM leukemia": {"system": "CCRF-CEM leukemia"}, "SN12C renal": {"system": "SN12C renal"}, "NCI/ADR-RES ovarian": {"system": "NCI/ADR-RES ovarian"}, "MDA-MB-468 breast": {"system": "MDA-MB-468 breast"}, "SNB-19 CNS": {"system": "SNB-19 CNS"}, "HL-60(TB) leukemia": {"system": "HL-60(TB) leukemia"}, "MALME-3M melanoma": {"system": "MALME-3M melanoma"}, "IGROV1 ovarian": {"system": "IGROV1 ovarian"}, "HCT-15 colon": {"system": "HCT-15 colon"}, "CAKI-1 renal": {"system": "CAKI-1 renal"}, "HS 578T breast": {"system": "HS 578T breast"}, "786-0 renal": {"system": "786-0 renal"}, "LOX IMVI melanoma": {"system": "LOX IMVI melanoma"}, "BT-549 breast": {"system": "BT-549 breast"}, "HCT-116 colon": {"system": "HCT-116 colon"}, "PC-3 prostate": {"system": "PC-3 prostate"}, "NCI-H460 NSCLC": {"system": "NCI-H460 NSCLC"}, "TK-10 renal": {"system": "TK-10 renal"}, "MDA-MB-435 melanoma": {"system": "MDA-MB-435 melanoma"}, "NCI-H23 lung": {"system": "NCI-H23 lung"}, "OVCAR-4 ovarian": {"system": "OVCAR-4 ovarian"}, "RPMI-8226 leukemia": {"system": "RPMI-8226 leukemia"}, "OVCAR-3 ovarian": {"system": "OVCAR-3 ovarian"}, "A498 renal": {"system": "A498 renal"}, "SF-295 CNS": {"system": "SF-295 CNS"}, "OVCAR-8 ovarian": {"system": "OVCAR-8 ovarian"}, "SR leukemia": {"system": "SR leukemia"}, "EKVX NSCLC": {"system": "EKVX NSCLC"}, "HOP-92 NSCLC": {"system": "HOP-92 NSCLC"}, "COLO 205 colon": {"system": "COLO 205 colon"}, "OVCAR-5 ovarian": {"system": "OVCAR-5 ovarian"}, "ACHN renal": {"system": "ACHN renal"}, "MOLT-4 leukemia": {"system": "MOLT-4 leukemia"}, "HCC-2998 colon": {"system": "HCC-2998 colon"}, "HT29 colon": {"system": "HT29 colon"}, "K-562 leukemia": {"system": "K-562 leukemia"}, "NCI-H226 lung": {"system": "NCI-H226 lung"}, "MCF7 breast": {"system": "MCF7 breast"}, "SK-MEL-2 melanoma": {"system": "SK-MEL-2 melanoma"}, "DU-145 prostate": {"system": "DU-145 prostate"}, "SK-MEL-28 melanoma": {"system": "SK-MEL-28 melanoma"}}, "note": "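The concentration for 50% growth inhibition is given as GI50. TGI marks complete inhibition of growth.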"}
{"smiles": "C=CC(=O)N1CCN(CCCn2c(=O)c(-c3c(Cl)c(OC)cc(OC)c3Cl)cc3cnc(NC)nc32)CC1", "values": [{"measurement": "GI50", "setting": "NCI-H522 lung", "value": 2.66, "unit": "µM"}, {"measurement": "TGI", "setting": "NCI-H522 lung", "value": 11.8, "unit": "µM"}, {"measurement": "GI50", "setting": "SF-539 CNS", "value": 3.7, "unit": "µM"}, {"measurement": "TGI", "setting": "SF-539 CNS", "value": 16.4, "unit": "µM"}, {"measurement": "GI50", "setting": "SK-OV-3 ovarian", "value": 1.1, "unit": "µM"}, {"measurement": "TGI", "setting": "SK-OV-3 ovarian", "value": 9.48, "unit": "µM"}, {"measurement": "GI50", "setting": "A549 NSCLC", "value": 3.23, "unit": "µM"}, {"measurement": "TGI", "setting": "A549 NSCLC", "value": 14.4, "unit": "µM"}, {"measurement": "GI50", "setting": "SNB-75 CNS", "value": 0.211, "unit": "µM"}, {"measurement": "TGI", "setting": "SNB-75 CNS", "value": 4.88, "unit": "µM"}, {"measurement": "GI50", "setting": "NCI-H322M lung", "value": 5.16, "unit": "µM"}, {"measurement": "TGI", "setting": "NCI-H322M lung", "value": "> 39.6", "unit": "µM"}, {"measurement": "GI50", "setting": "CCRF-CEM leukemia", "value": 1.51, "unit": "µM"}, {"measurement": "TGI", "setting": "CCRF-CEM leukemia", "value": 3.29, "unit": "µM"}, {"measurement": "GI50", "setting": "SN12C renal", "value": 2.36, "unit": "µM"}, {"measurement": "TGI", "setting": "SN12C renal", "value": 12.2, "unit": "µM"}, {"measurement": "GI50", "setting": "NCI/ADR-RES ovarian", "value": 7.93, "unit": "µM"}, {"measurement": "TGI", "setting": "NCI/ADR-RES ovarian", "value": 21.3, "unit": "µM"}, {"measurement": "GI50", "setting": "MDA-MB-468 breast", "value": 0.95, "unit": "µM"}, {"measurement": "TGI", "setting": "MDA-MB-468 breast", "value": 2.68, "unit": "µM"}, {"measurement": "GI50", "setting": "SNB-19 CNS", "value": 5.11, "unit": "µM"}, {"measurement": "TGI", "setting": "SNB-19 CNS", "value": 17.3, "unit": "µM"}, {"measurement": "GI50", "setting": "HL-60(TB) leukemia", "value": 1.55, "unit": "µM"}, {"measurement": "TGI", "setting": "HL-60(TB) leukemia", "value": 4.2, "unit": "µM"}, {"measurement": "GI50", "setting": "MALME-3M melanoma", "value": 1.92, "unit": "µM"}, {"measurement": "TGI", "setting": "MALME-3M melanoma", "value": 9.84, "unit": "µM"}, {"measurement": "GI50", "setting": "IGROV1 ovarian", "value": 0.888, "unit": "µM"}, {"measurement": "TGI", "setting": "IGROV1 ovarian", "value": 7.23, "unit": "µM"}, {"measurement": "GI50", "setting": "HCT-15 colon", "value": 2.37, "unit": "µM"}, {"measurement": "TGI", "setting": "HCT-15 colon", "value": 14.9, "unit": "µM"}, {"measurement": "GI50", "setting": "CAKI-1 renal", "value": 0.478, "unit": "µM"}, {"measurement": "TGI", "setting": "CAKI-1 renal", "value": 3.49, "unit": "µM"}, {"measurement": "GI50", "setting": "HS 578T breast", "value": 0.327, "unit": "µM"}, {"measurement": "TGI", "setting": "HS 578T breast", "value": 2.35, "unit": "µM"}, {"measurement": "GI50", "setting": "786-0 renal", "value": 2.38, "unit": "µM"}, {"measurement": "TGI", "setting": "786-0 renal", "value": 13.7, "unit": "µM"}, {"measurement": "GI50", "setting": "LOX IMVI melanoma", "value": 2.63, "unit": "µM"}, {"measurement": "TGI", "setting": "LOX IMVI melanoma", "value": 15.6, "unit": "µM"}, {"measurement": "GI50", "setting": "BT-549 breast", "value": 0.369, "unit": "µM"}, {"measurement": "TGI", "setting": "BT-549 breast", "value": 3.1, "unit": "µM"}, {"measurement": "GI50", "setting": "HCT-116 colon", "value": 3.55, "unit": "µM"}, {"measurement": "TGI", "setting": "HCT-116 colon", "value": 14.7, "unit": "µM"}, {"measurement": "GI50", "setting": "PC-3 prostate", "value": 3.56, "unit": "µM"}, {"measurement": "TGI", "setting": "PC-3 prostate", "value": 12.4, "unit": "µM"}, {"measurement": "GI50", "setting": "NCI-H460 NSCLC", "value": 2.51, "unit": "µM"}, {"measurement": "TGI", "setting": "NCI-H460 NSCLC", "value": 12.7, "unit": "µM"}, {"measurement": "GI50", "setting": "TK-10 renal", "value": 5.98, "unit": "µM"}, {"measurement": "TGI", "setting": "TK-10 renal", "value": 19.5, "unit": "µM"}, {"measurement": "GI50", "setting": "MDA-MB-435 melanoma", "value": 4.33, "unit": "µM"}, {"measurement": "TGI", "setting": "MDA-MB-435 melanoma", "value": 14.7, "unit": "µM"}, {"measurement": "GI50", "setting": "NCI-H23 lung", "value": 3.72, "unit": "µM"}, {"measurement": "TGI", "setting": "NCI-H23 lung", "value": 15.3, "unit": "µM"}, {"measurement": "GI50", "setting": "OVCAR-4 ovarian", "value": 3.14, "unit": "µM"}, {"measurement": "TGI", "setting": "OVCAR-4 ovarian", "value": 18, "unit": "µM"}, {"measurement": "GI50", "setting": "RPMI-8226 leukemia", "value": 0.759, "unit": "µM"}, {"measurement": "TGI", "setting": "RPMI-8226 leukemia", "value": 2.39, "unit": "µM"}, {"measurement": "GI50", "setting": "OVCAR-3 ovarian", "value": 2.21, "unit": "µM"}, {"measurement": "TGI", "setting": "OVCAR-3 ovarian", "value": 13.6, "unit": "µM"}, {"measurement": "GI50", "setting": "A498 renal", "value": 0.462, "unit": "µM"}, {"measurement": "TGI", "setting": "A498 renal", "value": 4.69, "unit": "µM"}, {"measurement": "GI50", "setting": "SF-295 CNS", "value": 8.31, "unit": "µM"}, {"measurement": "TGI", "setting": "SF-295 CNS", "value": 38.1, "unit": "µM"}, {"measurement": "GI50", "setting": "OVCAR-8 ovarian", "value": 5.9, "unit": "µM"}, {"measurement": "TGI", "setting": "OVCAR-8 ovarian", "value": 19.2, "unit": "µM"}, {"measurement": "GI50", "setting": "SR leukemia", "value": 1.29, "unit": "µM"}, {"measurement": "TGI", "setting": "SR leukemia", "value": 3.04, "unit": "µM"}, {"measurement": "GI50", "setting": "EKVX NSCLC", "value": 5.95, "unit": "µM"}, {"measurement": "TGI", "setting": "EKVX NSCLC", "value": 19.6, "unit": "µM"}, {"measurement": "GI50", "setting": "HOP-92 NSCLC", "value": 1.61, "unit": "µM"}, {"measurement": "TGI", "setting": "HOP-92 NSCLC", "value": 6.96, "unit": "µM"}, {"measurement": "GI50", "setting": "COLO 205 colon", "value": 10.9, "unit": "µM"}, {"measurement": "TGI", "setting": "COLO 205 colon", "value": 22.9, "unit": "µM"}, {"measurement": "GI50", "setting": "OVCAR-5 ovarian", "value": 18.1, "unit": "µM"}, {"measurement": "TGI", "setting": "OVCAR-5 ovarian", "value": 46.3, "unit": "µM"}, {"measurement": "GI50", "setting": "ACHN renal", "value": 0.975, "unit": "µM"}, {"measurement": "TGI", "setting": "ACHN renal", "value": 11.3, "unit": "µM"}, {"measurement": "GI50", "setting": "MOLT-4 leukemia", "value": 0.689, "unit": "µM"}, {"measurement": "TGI", "setting": "MOLT-4 leukemia", "value": 1.96, "unit": "µM"}, {"measurement": "GI50", "setting": "HCC-2998 colon", "value": 9.16, "unit": "µM"}, {"measurement": "TGI", "setting": "HCC-2998 colon", "value": 22, "unit": "µM"}, {"measurement": "GI50", "setting": "HT29 colon", "value": 4.61, "unit": "µM"}, {"measurement": "TGI", "setting": "HT29 colon", "value": 16.8, "unit": "µM"}, {"measurement": "GI50", "setting": "K-562 leukemia", "value": 5.67, "unit": "µM"}, {"measurement": "TGI", "setting": "K-562 leukemia", "value": 18.3, "unit": "µM"}, {"measurement": "TGI", "setting": "NCI-H226 lung", "value": 11.8, "unit": "µM"}, {"measurement": "GI50", "setting": "MCF7 breast", "value": 7.95, "unit": "µM"}, {"measurement": "TGI", "setting": "MCF7 breast", "value": 20.7, "unit": "µM"}, {"measurement": "GI50", "setting": "SK-MEL-2 melanoma", "value": 1.7, "unit": "µM"}, {"measurement": "TGI", "setting": "SK-MEL-2 melanoma", "value": 5.09, "unit": "µM"}, {"measurement": "GI50", "setting": "DU-145 prostate", "value": 4.02, "unit": "µM"}, {"measurement": "TGI", "setting": "DU-145 prostate", "value": 18.1, "unit": "µM"}, {"measurement": "GI50", "setting": "SK-MEL-28 melanoma", "value": 15.1, "unit": "µM"}, {"measurement": "TGI", "setting": "SK-MEL-28 melanoma", "value": 39.5, "unit": "µM"}]}
